“And” between values parts separate entries of the source, which are not always exact repeats. Identical values can stand only once.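 Compound exposure: 48 hours, 5 concentrations, 96-well plates. Abbreviation: GI50, concentration required for 50% inhibition of growth. TGI marks complete inhibition of growth.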

The values below come from PubChem BioAssay (NCI).

Assay in all cases: DTP human tumour cell line panel, 48 h
Experiment [1] deals with LOX IMVI melanoma.
For experiment [2], the system named is SK-MEL-2 melanoma.
For experiment [3], the system named is RPMI-8226 leukemia.
Experiment [4] deals with T-47D breast.
Experiment [5] deals with ACHN renal.
Experiment [6] concerns A498 renal.
The subject of experiment [7] is K-562 leukemia.
The subject of experiment [8] is 786-0 renal.

The term TGI denotes the concentration giving total growth inhibition. A higher TGI goes with less potent growth arrest. For the compound `O=C(/C=C\c1ccc([N+](=O)[O-])cc1)c1ccccc(=O)c1O`, the TGI in experiment [1] was found to be 2.86 µM; in experiment [2], 6.93 µM; in experiment [3] it was 4.5 µM; in experiment [4], 23.8 µM; in experiment [5], 2.85 µM; in experiment [6] it was 9.59 µM. Also, the TGI in experiment [7] was > 30.9 µM; in experiment [8], 4.05 µM.

A word on the GI50: it is the concentration that inhibits growth by half. Take `CCC(C)[C@H](NC(=O)Nc1cc(C(F)(F)F)cc(C(F)(F)F)c1)C(=O)N[C@@H](Cc1cn(C)cn1)C(=O)OC` (stereo partly drawn): the GI50 was 0.768 µM in experiment [1]; 1.4 µM in experiment [2]; 0.721 µM in experiment [3]; 0.912 µM in experiment [4]; 1.4 µM in experiment [5]; 1.6 µM in experiment [6]. Besides, the GI50 in experiment [7] is 1.06 µM; in experiment [8] it was 1.19 µM. In addition, the TGI in experiment [1] was found to be 1.83 µM; in experiment [2], 1.89 µM; in experiment [3], 1.86 µM; in experiment [4], 1.74 µM; in experiment [5] it was 2.01 µM; in experiment [6] it was 3.4 µM. Also, the TGI in experiment [7] amounted to 2.44 µM; in experiment [8], 1.88 µM.

Regarding `O=S(=O)(NNc1ccccc1)c1ccccc1`, the TGI in experiment [1] is 13.6 µM; in experiment [2], 44.3 µM; in experiment [3] it was 46.4 µM; in experiment [4], 51.5 µM; in experiment [5] it was 15.8 µM; in experiment [6], > 100 µM. For the same compound, the figures for the TGI in experiment [7] and in experiment [8] were 39.5 µM and > 100 µM, respectively.

As for `CC1(C)CNc2cc(NC(=O)c3cccnc3NCc3ccncc3)ccc21`, the GI50 is 23.3 µM in experiment [1]; 17.2 µM in experiment [2]; 21.9 µM in experiment [3]; 17 µM in experiment [4]; 10.6 µM in experiment [5]; 12.5 µM in experiment [6]. In addition, the GI50 was 19.9 µM in experiment [7] and 45.1 µM in experiment [8]. Further, the TGI is > 100 µM in experiment [1]; 47.8 µM in experiment [2]; > 100 µM in experiment [3]; > 88.5 µM in experiment [4]; > 100 µM in experiment [5]; > 79.7 µM in experiment [6]. The TGI in experiment [7] and in experiment [8] was > 100 µM throughout.

Take `COc1ccc2c(c1)nc(C(=O)c1ccco1)c(C(F)(F)F)[n+]2[O-]`: the GI50 is > 100 µM in experiment [1]; > 100 µM in experiment [2]; > 100 µM in experiment [3]; 77.4 µM in experiment [4]; > 100 µM in experiment [5]; > 100 µM in experiment [6]. In addition, the GI50 is > 100 µM in experiment [7] and 29.2 µM in experiment [8]. Besides, the TGI in experiment [1], in experiment [2], in experiment [3], in experiment [4], in experiment [5] and in experiment [6] was > 100 µM each time. For the same compound, the TGI in experiment [7] and in experiment [8] was > 100 µM in each case.

Consider `CC1=C(SCCC(=O)OC(C[Se]C2=C(C)C(=O)c3ccccc3C2=O)C(=O)NCCCCCC(=O)OCc2ccccc2)C(=O)c2ccccc2C1=O` (stereo not drawn), for which the GI50 in experiment [1] was 2.75 µM; in experiment [2], 5.5 µM; in experiment [3], 2.65 µM; in experiment [4] it was 17.7 µM; in experiment [5], 12.1 µM; in experiment [6] it was 11.9 µM. Also, the GI50 in experiment [7] is 3.04 µM; in experiment [8], 4.68 µM. Also, the TGI is 11.5 µM in experiment [1]; 18.9 µM in experiment [2]; 7.76 µM in experiment [3]; 51.8 µM in experiment [4]; 27.6 µM in experiment [5]; > 100 µM in experiment [6]. The TGI in experiment [7] was > 100 µM; in experiment [8], 14 µM.

In the case of `CN(C)c1ccc2oc(=O)c3ccccc3c2c1`, the TGI was > 100 µM in experiment [1]; 84.1 µM in experiment [2]; > 100 µM in experiment [3]; > 100 µM in experiment [4]; 62.9 µM in experiment [5]; > 100 µM in experiment [6]. Moreover, the TGI was > 100 µM in experiment [7] and 79.6 µM in experiment [8].

As for `CCN(CC)CCCNc1cc(OC)cc2nc3cc(Cl)ccc3nc12`, the GI50 in experiment [1] is 0.913 µM; in experiment [2] it was 1.75 µM; in experiment [3], 2.53 µM; in experiment [4], 6.62 µM; in experiment [5] it was 1.33 µM; in experiment [6], 1.27 µM. Further, the GI50 is 1.54 µM in experiment [7] and 1.18 µM in experiment [8]. Besides, the TGI in experiment [1] came to 2.25 µM; in experiment [2], 3.43 µM; in experiment [3], 6.25 µM; in experiment [4], 20.7 µM; in experiment [5] it was 11.8 µM; in experiment [6] it was 2.7 µM. The results for the TGI in experiment [7] and in experiment [8] were 11.6 µM and 3.5 µM, respectively.

Consider `COc1cc(/C=N/Nc2ncnc3c2cnn3-c2ccccc2)ccc1O`, for which the GI50 was 10.3 µM in experiment [1]; 5.85 µM in experiment [2]; > 25 µM in experiment [3]; 7.64 µM in experiment [4]; 7.93 µM in experiment [5]; > 25 µM in experiment [6]. The GI50 in experiment [7] is 2.85 µM; in experiment [8], > 16.2 µM. Moreover, the TGI in experiment [1] was > 25 µM; in experiment [2] it was 20.6 µM; in experiment [3], > 25 µM; in experiment [4], > 25 µM; in experiment [5] it was > 25 µM; in experiment [6], > 25 µM. Also, the TGI in experiment [7] and in experiment [8] was > 25 µM in each case.

For the compound `CC(C)(C)C1CCC2c3c([nH]c4ccccc34)C3C(=O)N(c4ccc(Cl)cc4)C(=O)C3C2C1` (stereo not drawn), the TGI in experiment [1] was 0.0487 µM; in experiment [2], > 10 µM; in experiment [3], 77 µM and > 10 µM; in experiment [4] it was > 100 µM; in experiment [5], > 100 µM; in experiment [6] it was > 10 µM. The TGI was 46.1 µM and > 10 µM in experiment [7]; > 100 µM in experiment [8]. Moreover, the GI50 was 27.2 µM and > 10 µM in experiment [3]; 60.9 µM and > 10 µM in experiment [4]; 76.5 µM and > 10 µM in experiment [5]; 21.1 µM and > 10 µM in experiment [7]; > 100 µM in experiment [8].

As for `COc1ccc2c(c1)[nH]c(=O)c1c3cccc(F)c3cn21`, the GI50 in experiment [1] was 0.0759 µM; in experiment [2] it was 0.469 µM; in experiment [3] it was 0.0295 µM; in experiment [4], 42.1 µM; in experiment [5] it was 0.0576 µM; in experiment [6] it was 0.0625 µM. Besides, the values for the GI50 in experiment [7] and in experiment [8] were 0.024 µM and 0.0665 µM, respectively. In addition, the total growth inhibition concentration (TGI) in experiment [1] is > 100 µM; in experiment [2], > 100 µM; in experiment [3], 0.27 µM; in experiment [4] it was > 100 µM; in experiment [5], > 100 µM; in experiment [6] it was > 100 µM. In addition, the TGI is 12.3 µM in experiment [7] and > 86.1 µM in experiment [8].

Regarding `CCN(Cc1ccccc1)C1CCN(Cc2cc(Br)ccc2O)CC1`, the GI50 is 23.3 µM in experiment [1]; 85.4 µM in experiment [2]; 25.5 µM in experiment [3]; 24 µM in experiment [4]; 79.7 µM in experiment [5]; 9.29 µM in experiment [6]. In addition, the GI50 is 26.6 µM in experiment [7] and 35.9 µM in experiment [8]. Also, the TGI in experiment [1] is 63.6 µM; in experiment [2] it was > 100 µM; in experiment [3], > 100 µM; in experiment [4], > 100 µM; in experiment [5], > 100 µM; in experiment [6] it was > 100 µM. Besides, the TGI in experiment [7] and in experiment [8] was > 100 µM throughout.

With `CNC(=O)c1cc(Oc2ccc(NC(=O)Nc3ccc(Cl)c(C(F)(F)F)c3)c(F)c2)ccn1`, the GI50 was 1.12 µM and 0.787 µM in experiment [1]; 0.664 µM and 0.336 µM in experiment [2]; 1.71 µM and 1.83 µM in experiment [3]; 2.08 µM and 1.53 µM in experiment [4]; 3.29 µM and 2.88 µM in experiment [5]; 2.75 µM and 1.82 µM in experiment [6]. Besides, the GI50 in experiment [7] is 1.21 µM and 1.81 µM; in experiment [8], 3.39 µM and 3.06 µM. Besides, the TGI was 6.93 µM and > 10 µM in experiment [1]; 2.13 µM and 1.86 µM in experiment [2]; 4.96 µM and 7.32 µM in experiment [3]; 9.1 µM and 7.49 µM in experiment [4]; > 44.9 µM in experiment [5]; 7.25 µM and 5.73 µM in experiment [6]. Moreover, the TGI was 7.13 µM and > 10 µM in experiment [7]; > 83.2 µM in experiment [8].

Regarding `Cc1ccc(/C=N/Nc2nc(Nc3ccccc3)nc(-n3nc(C)cc3C)n2)cc1`, the GI50 in experiment [1] was 3.81 µM; in experiment [2], 5.72 µM; in experiment [3] it was 3.19 µM; in experiment [4], 2.55 µM; in experiment [5], 4.44 µM; in experiment [6], 7.13 µM. For the same compound, the GI50 in experiment [7] was 3.71 µM; in experiment [8], 3.7 µM. The TGI was 22.1 µM in experiment [1]; 27 µM in experiment [2]; 12.9 µM in experiment [3]; 7.41 µM in experiment [4]; 56.6 µM in experiment [5]; 92.4 µM in experiment [6]. For the same compound, the values for the TGI in experiment [7] and in experiment [8] were 42.7 µM and 36.9 µM, respectively.

Take `CCc1ccc(CCC(=O)Nc2ncc(Cc3ccc(Cl)cc3)s2)o1`: the GI50 in experiment [1] was 1.02 µM; in experiment [2], 0.684 µM; in experiment [3], 0.372 µM; in experiment [4] it was 1.48 µM; in experiment [5], 0.66 µM; in experiment [6] it was 0.208 µM. Moreover, the concentration for 50% growth inhibition (GI50) was 0.365 µM in experiment [7] and 0.582 µM in experiment [8]. The TGI in experiment [1] is > 100 µM; in experiment [2], > 100 µM; in experiment [3], > 100 µM; in experiment [4], > 100 µM; in experiment [5] it was > 100 µM; in experiment [6], 0.844 µM. The TGI in experiment [7] and in experiment [8] was > 100 µM throughout.
